# Patent US12318403B2, “2′3′-cyclic dinucleotides and prodrugs thereof” (INSTITUTE OF ORGANIC CHEMISTRY AND BIOCHEMISTRY ASCR, V.V.I., priority 2019, dated 2025)
# Read-outs that look alike come from different tables or passages of the source.
# What was measured:
# human WT STING = biological target: T1, human WT STING (Homo sapiens, UniProt Q86WV6, H232R); test: Differential Scanning Fluorimetry with WT STING; type: binding; settings: thermal shift vs STING apoprotein; 150 μM CDN; truncated WT STING (residues 140-343)
# T1 construct: truncated human WT STING or AQ STING (amino acid residues 140-343); 8xHis (N, cleaved yes); SUMO (N, cleaved yes); made in house; host or cells: E. coli Rosetta-gami B (DE3)
# [1] = biological target: T2, AQ human STING (G230A-R293Q) (Homo sapiens, UniProt Q86WV6, G230A/H232R/R293Q); test: Differential Scanning Fluorimetry with AQ STING; type: binding; settings: thermal shift vs STING apoprotein; 150 μM CDN; truncated AQ STING (residues 140-343)
# T2 construct: truncated human WT STING or AQ STING (amino acid residues 140-343); 8xHis (N, cleaved yes); SUMO (N, cleaved yes); made in house; host or cells: E. coli Rosetta-gami B (DE3)
# [2] = biological target: T3, human wild type STING (WT STING) (Homo sapiens, UniProt Q86WV6, H232R); test: Digitonin assay using 293T wtSTING-FL reporter cells; type: cell-based; settings: 293T wtSTING-FL cells; compounds in Digitonin buffer 30 minutes, then 5 hours in medium; ISRE firefly luciferase
# [3] = biological target: T3, human wild type STING (WT STING); test: 293T WT STING standard reporter assay; type: cell-based; settings: 293T wtSTING-FL cells; standard reporter assay without digitonin; 7 hours; ISRE firefly luciferase; read-out: 293T WT STING EC50
# [4] = tested on: peripheral blood mononuclear cell (PBMC); test: Peripheral blood mononuclear cell assay; settings: PBMC, average of one to four donors
# T3 sequence (Q86WV6 whole entry H232R): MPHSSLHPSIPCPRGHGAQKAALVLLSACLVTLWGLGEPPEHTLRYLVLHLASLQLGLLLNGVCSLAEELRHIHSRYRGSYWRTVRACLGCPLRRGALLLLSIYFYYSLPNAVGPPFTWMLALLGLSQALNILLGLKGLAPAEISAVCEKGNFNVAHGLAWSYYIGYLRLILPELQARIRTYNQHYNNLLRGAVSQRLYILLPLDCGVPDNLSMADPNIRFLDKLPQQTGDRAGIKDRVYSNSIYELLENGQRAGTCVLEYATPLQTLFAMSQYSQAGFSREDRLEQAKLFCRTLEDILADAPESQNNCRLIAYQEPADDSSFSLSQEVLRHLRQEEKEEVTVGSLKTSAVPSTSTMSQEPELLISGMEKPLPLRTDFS
# T1 sequence (Q86WV6 140-343 H232R): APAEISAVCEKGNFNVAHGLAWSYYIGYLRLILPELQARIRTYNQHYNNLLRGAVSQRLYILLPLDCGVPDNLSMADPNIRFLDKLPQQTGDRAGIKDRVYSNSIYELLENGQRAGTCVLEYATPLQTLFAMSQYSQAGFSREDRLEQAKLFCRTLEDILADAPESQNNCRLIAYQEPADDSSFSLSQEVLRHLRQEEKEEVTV
# T2 sequence (Q86WV6 140-343 G230A/H232R/R293Q): as the sequence (Q86WV6 140-343 H232R) above, with G91A, R154Q counted along it
compound,measurement,setting,value
"Nc1nc2c(ncn2[C@@H]2O[C@@H]3COP(=O)(S)CO[C@H]4[C@@H](F)[C@H](n5cnc6c(N)ncnc65)O[C@@H]4COP(=O)(S)O[C@@H]2[C@@H]3F)c(=O)[nH]1 (single isomer, unassigned) [Compound 17d]",DSF ΔTm WT STING,human WT STING,19.2 °C
same,DSF ΔTm AQ STING,[1],27.6 °C
same,EC50,[2],0.012 µM
same,EC50,[3],0.4 µM
same,EC50,"[4]; read-out: PBMC EC50 IFN-α, compounds 1h, washed, 15 hour incubation, interferon-alpha level in medium",69 µM
same,EC50,"[4]; read-out: PBMC EC50 IFN-γ, compounds 1h, washed, 15 hour incubation, interferon-gamma level in medium",23 µM
same,EC50,"[4]; read-out: PBMC EC50 TNF-α, compounds 1h, washed, 15 hour incubation, tumor necrosis factor-alpha level in medium",68 µM
